The values that follow come from patent US20120277199A1, “Modulation of Gel Temperature of Poloxamer-Containing Formulations” (Otonomy, Inc., priority 2009, published 2012).

In brackets after ≈: the same amount, converted by molar mass.

Data set [1] in a line: In vitro dissolution in snapwells, mean dissolution time (MDT). The format is physicochemical.
Procedure: Dissolution was performed at 37° C. in snapwells (6.5 mm diameter polycarbonate membrane with a pore size of 0.4 μm). […] Samples were taken every hour (0.1 mL withdrawn and replaced with warm buffer).
Dissolution is performed at 37° C. in snapwells (6.5 mm diameter polycarbonate membrane with a pore size of 0.4 μm), 0.2 mL of a gel formulation described herein is placed into snapwell and left to harden, then 0.5 mL buffer is placed into reservoir and shaken using a Labline orbit shaker at 70 rpm. Samples are taken every hour (0.1 mL withdrawn and replace with warm buffer). […] Pluronic concentration is analyzed at 624 nm using the cobalt thiocyanate method.
The mean dissolution time (MDT) is the sum of different periods of time the drug molecules stay in the matrix before release, divided by the total number of molecules and is optionally calculated by:
Dissolution was performed at 37° C. in snapwells (6.5 mm diameter polycarbonate membrane with a pore size of 0.4 μm), 0.2 mL of formulation was placed into snapwell and left to harden, then 0.5 mL of 0.9% saline was placed into reservoir and shaken using a Labline orbit shaker at 70 rpm. Samples were taken every hour (0.1 mL withdrawn and replace with warm buffer). Samples analyzed for dexamethasone and ciprofloxacin concentration by UV at 245 and 270 nm, respectively using a Evolution 160 UV/Vis spectrophotometer (Thermo Scientific). Quantitation performed against an external calibration standard.
Dissolution was performed at 37° C. in snapwells (6.5 mm diameter polycarbonate membrane with a pore size of 0.4 μm), 0.2 mL of gel was placed into snapwell and left to harden, 0.5 mL of 0.9% saline was placed into reservoir and shaken using a Labline orbit shaker at 70 rpm. Samples were taken every hour (All the saline withdrawn and replace with warm 0.9% saline with an osmolality of 290 mOsm). Samples were analyzed for Ciprofloxacin by HPLC.
The nature of data set [2]: Perilymph pharmacokinetics after intratympanic injection in guinea pigs. Particulars: guinea pig, in vivo. The protocol: Guinea pigs were administered 50 μl via intratympanic delivery and PK in the perilymph was measured as described herein.
Female guinea pigs (Charles River) weighing 200-300 g, of approximately 6-8 weeks of age are used (N=4 per group). Prior to any procedure, animals are anesthetized using a combination of xylazine (10 mg/kg), ketamine (40 mg/kg) and acepromazine (0.75 mg/kg) for up to an hour via the intramuscular route. If needed, an intraoperative booster is administered intraperitoneally representing one-tenth of the original dose. Intratympanic injection—Each animal is positioned so that the head is tilted at an angle to favor injection towards the round window niche. Briefly, under visualization with an operating microscope, 50 μl of formulations comprising 0 to 50% active agent and varying concentrations of P407 are administered to the animals. […] During the procedure and until recovery, animals are placed on a temperature controlled (40° C.) heating pad until consciousness is regained at which time they are returned to the vivarium. Perilymph sampling procedure—The skin behind the ear of anesthetized guinea pigs is shaved and disinfected with povidone-iodine. An incision is then made behind the ear, and muscles are carefully retracted from over the bulla. […]
Determination of active agent concentrations is performed using high pressure liquid chromatography (HPLC) combined with mass spectrometry detection (MS). […] The samples are analyzed by reversed phase HPLC (1100 series, Agilent) using an Atlantis dC18 column maintained at 40° C. The mobile phase is nebulized using heating nitrogen in a Z-spray source/interface and the ionized compounds detected using MS/MS (Tandem quadrupole mass spectrometer, Quattro Ultima, Waters). Peak heights of an active agent are determined using MassLynx software (Waters). […]
Pharmacokinetic parameters are calculated using conventional noncompartmental pharmacokinetic methods. The apparent clearance (CL app) is calculated as the ratio between the administered intratympanic dose and the exposure (AUC). […]

The conditions of data set [3]: cited from earlier work.
The next data set is described as follows: physchem. To be noted: aqueous with cosolvent or surfactant or cyclodextrin, thermodynamic from solid. The method, then:
In addition, modifying the solubility of the active agent can also have an effect on the properties of the thermosensitive gel.
A formulation comprising 0.5% w/w SP600125 in 16% Poloxamer 407 was made by dispersing 5.3 mg of SP600125 (LC Labs) in 994.7 mg of a 16% P407 in 50 mM Tris buffer.

Data set [4] is described as follows: Stability to autoclaving (impurity profile, assay, pH, osmolality, appearance). To be noted: autoclaving at 250° F. for 30 minutes in P407. The format is physicochemical.
Procedure: Cold 16% P407 in 50 mM TRIS buffers-saline (pH 7.4 and osmolality of 280 mOsM) was placed in a open container, then ciprofloxacin free base or ciprofloxacin free base hydrate (3.5 moles) was sprinkled in while mixing. Ciprofloxacin suspension was mixed for not less than 10 minutes, then micronized dexamethasone was added slowly to the mixture while mixing. The homogenous suspension was then transferred to 3 mL vials and filled at different volumens (v1=4 g, v2, 3 g and v3 2 g). The glass vial were sealed with West stoppers (fluorotec coated) and Aluminum seals, followed by autoclaving at 250° F. for 30 minutes.
Weigh 58.8 g of the above buffer, chill down, then sprinkle while mixing 11.291 g of poloxamer 407 NF (BASF lot WPNF580C), mix until fully dissolved. Weigh 64.8 g of a the 16% P407 (above solution) into a 100 mL glass bottle containing a 35 mm stir bar then sprinkle 2.2915 g of ciprofloxacin hydrate (Neuland lot CHI071000). Mix for not less than 2 hours at a setting of 11 (IKA stir plate) minutes while cooling then fill 31 two mL vials with approximately 2 g of suspension, stopper them with 13 mm West stoppers and seal them with Al seal, autoclave for 30 minutes @ 250° C.
The conditions of data set [5]: systemically administered (oral or intravenously); cited from earlier work.

For `C[C@H]1C[C@@H]2[C@H]([C@@H](O)C[C@@]3(C)[C@H]2CC[C@]3(O)C(=O)COC(=O)CCC(=O)[O-])[C@@]2(C)C=CC(=O)C=C12.[Na+]` [MPS], the MDT result in data set [1] (17% Poloxamer 407 formulation) is given as “about 3 h”. Moreover, the “peak methylprednisolone levels in the perilymph” value in data set [2] is 6.5 µg/mL.
As to `Cc1cccc(CN2CCN(C(c3ccccc3)c3ccc(Cl)cc3)CC2)c1` (stereo not shown) [meclizine], in data set [3], the solubility in water result is listed as “insoluble in water”.
On to `C[C@@H]1C[C@H]2[C@@H]3CCC4=CC(=O)C=C[C@]4(C)[C@@]3(F)[C@@H](O)C[C@]2(C)[C@@]1(O)C(=O)COP(=O)(O)O` [DSP, dexamethasone sodium phosphate], for which the MDT entry in data set [1] (17% Poloxamer 407 formulation) was “about 3 h”; in data set [1] (DSP aqueous solution, micronized DEX suspension in water (no poloxamer)), 0.3 h.
For `O=C1c2ccccc2-c2n[nH]c3cccc1c23` [SP600125, anthra[1,9-cd]pyrazol-6(2H)-one], the solubility in “physchem” is ~190 µg/mL (≈ 863 µM). In addition, the reported water solubility in data set [3] is 11 µg/mL. Besides, the “LogD (7.4)” value in data set [3] (pH 7.4) is on record as 3.2.
Regarding `C[C@H]1C[C@@H]2[C@H]([C@@H](O)C[C@@]3(C)[C@H]2CC[C@]3(O)C(=O)CO)[C@@]2(C)C=CC(=O)C=C12` [MP], in data set [2], the “decrease of perilymph levels after peak” value is reported as “decreased slowly over 10 days” and the “peak methylprednisolone levels in the perilymph” value came to 19.2 µg/mL.
`O=C(O)c1cn(C2CC2)c2cc(N3CCNCC3)c(F)cc2c1=O` [ciprofloxacin free base, ciprofloxacin]: the “change observed after autoclaving” value in data set [4] is listed as “appreciable particle size increase”.
With `CN(C)CCC=C1c2ccccc2CCc2ccccc21` [amitriptyline], in data set [3], the water solubility entry was “greater than 100 mg/mL”.
As for `O=C(O)c1cn(C2CC2)c2cc(N3CCNCC3)c(F)cc2c1=O` [ciprofloxacin free base hydrate, ciprofloxacin hydrate], the “change observed after autoclaving” value in data set [4] (hydrate) is “minimal growth or recrystallization”.
Regarding `O=P(O)(O)C(O)(Cc1cccnc1)P(=O)(O)O` [rosidronate], the “amount reaching the perilymph in the inner ear and/or otic bone structure” value in data set [5] is reported as “about 0.6 ng/day”.
Consider `O=P(O)(O)C(O)(Cn1ccnc1)P(=O)(O)O` [Zoledronate], for which the “in vitro mean dissolution time (MDT)” value in data set [1] (16% P407 formulation, FIG. 6) was 2 h. The “amount reaching the perilymph in the inner ear and/or otic bone structure” value in data set [5] is “about 0.1 ng/day”.

Usually solubility stands for how much of the substance goes into solution per volume.
